# Measurements reported in PubChem BioAssay (NCI).
# Where “and” joins values, the source holds several entries; their conditions need not be identical. Identical values can stand only once.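 Growth conditions: 96-well plates. Treatment: test compound, 48 hours, 5 concentrations. Analysis: linear interpolation between bracketing concentrations; unreached endpoints set to highest concentration. GI50 is the concentration that inhibits growth by half. TGI is the concentration that stops growth completely.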
# Key:
# Experiment in all cases: DTP human tumour cell line panel, 48 h
# MALME-3M melanoma = system: MALME-3M melanoma
# OVCAR-8 ovarian = system: OVCAR-8 ovarian
# OVCAR-5 ovarian = system: OVCAR-5 ovarian
# UACC-62 melanoma = system: UACC-62 melanoma
# A549 NSCLC = system: A549 NSCLC
# HCT-15 colon = system: HCT-15 colon
# SF-539 CNS = system: SF-539 CNS
# HOP-62 NSCLC = system: HOP-62 NSCLC
# EKVX NSCLC = system: EKVX NSCLC
# HS 578T breast = system: HS 578T breast
Compound,TGI (MALME-3M melanoma) [µM],TGI (OVCAR-8 ovarian),TGI (OVCAR-5 ovarian),TGI (UACC-62 melanoma) [µM],TGI (A549 NSCLC),TGI (HCT-15 colon),TGI (SF-539 CNS) [µM],TGI (HOP-62 NSCLC),TGI (EKVX NSCLC) [µM],GI50 (MALME-3M melanoma) [µM],GI50 (OVCAR-8 ovarian),GI50 (OVCAR-5 ovarian),GI50 (UACC-62 melanoma) [µM],GI50 (HS 578T breast),TGI (HS 578T breast),GI50 (A549 NSCLC),GI50 (HCT-15 colon),GI50 (SF-539 CNS) [µM],GI50 (HOP-62 NSCLC),GI50 (EKVX NSCLC) [µM]
COc1cccc(/C=N\NC(=O)C(C)SC(C)C(=O)N/N=C/c2cccc(OC)c2)c1 (stereo unspecified),> 100,70 µM,> 100 µM,97.4,20.6 µM,> 100 µM,> 100,33.1 µM,60.2,,,,,,,,,,,
CC(C)OP(=O)(O)c1ncc(-c2ccc(C(F)(F)F)cc2)c(NC2CCCCCC2)n1,> 100,> 100 µM,> 100 µM,> 100,> 100 µM,> 100 µM,> 100,> 100 µM,,> 100,> 100 µM,> 100 µM,49.7,> 100 µM,> 100 µM,> 100 µM,> 100 µM,> 100,81.2 µM,
C[C@H]1CC[P+](C)(c2ccccc2)C1 (stereo partly specified),> 100,> 100 µM,> 100 µM,> 100,> 100 µM,> 100 µM,> 100,> 100 µM,> 100,,,,,,,,,,,
CCOc1ccc2cc(-c3nn(CC4CCNCC4)c4ncnc(N)c34)ccc2c1,,,34.5 µM,32.1,46.2 µM,32.1 µM,26.9,39.4 µM,> 100,,,14.9 µM,16.9,10.2 µM,43.4 µM,20.3 µM,13.5 µM,13.9,16.3 µM,22.5
C=C1C[C@@H]2O[C@H]3[C@H]4[C@@H](CC[C@@](C)(OC(=O)CCC)[C@H]42)[C@@H](C)C(=O)O[C@@]3(C)CC[C@H]1OO,37.1,51.6 µM,> 100 µM,,34.4 µM,29.7 µM,41.1,55.3 µM,70.8,18,22.6 µM,> 100 µM,,> 100 µM,> 100 µM,18.5 µM,16.2 µM,21,25.7 µM,27.7
CC(=O)Oc1cc2cnc3c4cc(OC(C)=O)c(OC(C)=O)cc4ccc3c2cc1OC(C)=O,9.33,31.2 µM,> 100 µM,3.26,> 100 µM,> 100 µM,4.46,59.4 µM,,1.55,1.97 µM,3.93 µM,0.979,1.01 µM,9.56 µM,3.69 µM,1.06 µM,1.3,1.86 µM,
CN(C)c1ccc(C(O)C2=CC(=O)c3ccccc3C2=O)cc1 (stereo unspecified),56.7,32.8 µM,52.4 µM,,> 100 µM,> 100 µM,6.08,64.7 µM,92.9,24.2,11.6 µM,22.4 µM,,0.509 µM,> 100 µM,30.3 µM,4.3 µM,2.6,23.1 µM,5.37
N#Cc1cc(S(=O)(=O)Nc2nc3cc(Cl)ccc3o2)c(SCc2ccccc2)cc1Cl,,27.3 µM,25.7 µM,25.9,27.2 µM,29.7 µM,26.4,24.8 µM,,,14.2 µM,13 µM,13.2,,,14.2 µM,16.2 µM,13.5,12.3 µM,
CCCCCCCCCCCCCCCC[n+]1ccccc1,,1.28 µM and 3.07 µM,1.86 µM and 2.93 µM,2.15,1.86 µM and 2.95 µM,2.64 µM and 3.61 µM,2.35,2.35 µM and 1.9 µM,2.09,,0.331 µM and 0.704 µM,0.494 µM and 0.842 µM,0.565,1.46 µM and 1.67 µM,4.64 µM and 4.84 µM,0.468 µM and 1.21 µM,1.1 µM and 1.09 µM,0.95,1.05 µM and 0.482 µM,0.453
COc1ccc(-c2cc(/C=C/C(=O)c3ccc(N)cc3)[nH]n2)cc1,6.22,15.4 µM,4.92 µM,2.94,10.2 µM,3.62 µM,3.48,7.49 µM,,2.18,2.44 µM,2.06 µM,1.48,4.04 µM,24.4 µM,2.55 µM,1 µM,1.47,2.8 µM,
Cc1cc(Cl)ccc1NC(=O)C1C(=O)N(c2ccc(Cl)cc2C)C(=O)/C1=N\NC(N)=S (stereo unspecified),49.7,> 100 µM,53.9 µM,86.4,> 100 µM,34.4 µM,70.6,48.5 µM,51.8,,,,,,,,,,,
Cc1ccc(C2CC(c3ccc(Nc4ccnc5cc(Cl)ccc45)cc3)=NN2C=O)cc1 (stereo unspecified),> 100,> 100 µM,> 100 µM,> 100,> 100 µM,> 100 µM,> 100,> 100 µM,,> 100,> 100 µM,> 100 µM,4.13,,,9.86 µM,2.78 µM,> 100,> 100 µM,
COc1ccc2c(c1OC)O/C(=C\c1ncc([N+](=O)[O-])n1C)C2=O,3.53,3.66 µM,12.5 µM,3.36,12.1 µM,3.61 µM,10.2,17.4 µM,,1.15,0.639 µM,2.82 µM,1.49,2.15 µM,> 22.8 µM,2.59 µM,0.487 µM,3.1,3.67 µM,
Cc1ccc2ccc(-c3ccccc3)c3c2c1C(=O)c1ccccc1C3=O,> 100,> 100 µM,> 100 µM,> 100,> 100 µM,,> 100,> 100 µM,> 100,,,,,,,,,,,
Cn1cnnc1[S-].[Au+].c1ccc([PH+](c2ccccc2)c2ccccc2)cc1,2.91,,3.49 µM,2.55,21.3 µM,,3,,,1.49,,1.88 µM,1.26,,,2.92 µM,,1.61,,
N#CCc1cccc(CC#N)c1Br,> 100,> 100 µM,> 100 µM,> 100,> 100 µM,> 100 µM,> 100,> 100 µM,> 100,,,,,,,,,,,
